Source: article PMC5826917, “A small molecule inhibitor of Nicotinamide N-methyltransferase for the treatment of metabolic disorders” (Scientific Reports, 2018)

Columns and labels:
[1] = in vivo; details: male, db/db (BKS.Cg- + Leprdb/ + Leprdb/OlaHsd), mouse, in vivo, JBSNF-000088 (μM)
Experimental: Samples for MNA were analyzed employing a fit-for-purpose LC-MS/MS method. PE-Sciex API-4000 triple quadrupole (PerkinElmerSciex Instruments, Boston, MA) mass spectrometer was employed for this analysis. Samples (5 µL) were injected onto Kinetex HILIC (50 × 4.6 mm, 2.6 µm; Phenomenex, Torrance, CA, USA) column connected to Shimadzu VP (Shimadzu, Japan) LC system. The gradient mobile phase mixture of 0.2% formic acid and acetonitrile was delivered at a flow rate of 0.45 ml min-1 into the mass spectrometer electrospray ionization (ESI) chamber. Quantitation was achieved by MS/MS detection in positive ion mode for MNA and internal standard (d4–MNA). Detection of the ions was performed in the multiple reaction monitoring (MRM) mode, monitoring the transition of the m/z 137 precursor ion to the m/z 92 product ion for MNA and m/z 141 precursor ion to the m/z 84 product ion for d4-MNA (internal standard).
A simple protein precipitation extraction method was followed for extraction of N-methylnicotinamide from plasma and various tissue homogenate samples. The tissue samples were homogenized with 1:3 proportions of phosphate buffer saline (PBS) and this homogenate was used for N-Methylnicotinamide determinations. To an aliquot of ~50 μL of plasma/ liver homogenate/ adipose tissue homogenate samples ~300 µl of acetonitrile containing IS (d4-MNA) solution was added, followed by vortex for ~3 minutes and centrifuged for 10 minutes at 14,000 rpm. The supernatant was separated and transferred to pre-labeled HPLC vials and analyzed by LC-MS/MS system.
Samples for methylated JBSNF-000088 were analyzed employing a fit-for-purpose LC-MS/MS method. PE-Sciex API-5500 triple quadrupole (PerkinElmerSciex Instruments, Boston, MA) mass spectrometer was employed for this analysis. Samples (2 µL) were injected onto Atlantis dC18 (50 × 4.6 mm, 3 µm; Waters, Milford, MA, USA) column connected to Shimadzu VP (Shimadzu, Japan) LC system. The gradient mobile phase mixture of 0.2% formic acid and acetonitrile was delivered at a flow rate of 0.9 mL min-1 into the mass spectrometer electrospray ionization (ESI) chamber. Quantitation was achieved by MS/MS detection in positive ion mode for methylated JBSNF-000088 and internal standard (Tolbutamide). Detection of the ions was performed in the multiple reaction monitoring (MRM) mode, monitoring the transition of the m/z 168 precursor ion to the m/z 128.8, product ion for MNA and m/z 271 precursor ion to the m/z 91 product ion for tolbutamide (internal standard).
Male C57BL6/N (Vivo Bio Tech Ltd, India), ob/ob (B6.V-Lepob/OlaHsd) and its lean control (Envigo laboratories Inc, USA) and db/db (BKS.Cg- + Leprdb/ + Leprdb/OlaHsd) and its lean control (Envigo laboratories Inc, USA) were housed in individually ventilated cages (n = 5/cage) under standard laboratory conditions. The study room environment was maintained at a temperature of 21–24 °C and, relative humidity at 40–70%. The animal rooms were maintained under 12 h light and dark cycle. Animals were provided with ad libitum access to water and food (except where noted otherwise, e.g. during fasting prior for glucose tolerance tests, fasting prior to terminal sacrifice). Animals were acclimatized for 1 week before initiation of studies. For Diet induced obesity (DIO) mice study, C57BL6/N mice were maintained on rodents chow diet (Teklad; Harlan) or HFD (60% Kcal; Research diet) for 14 weeks before study initiation and throughout the study period. ob/ob and db/db mice and their lean controls were maintained on rodents chow diet (Teklad; Harlan). All the experiments were approved by Institutional Animal Ethics Committee (IAEC) of Jubilant Biosys Ltd, India.
Lean control + Vehicle and HFD + Vehicle Control groups (G1 and G2) mice were administered with vehicle.

[2] = biological target: cGMP-inhibited 3,5-cyclic phosphodiesterase A (PDEA3) (Homo sapiens, UniProt Q14432); experiment: Selectivity panel: PDEA3; type: biochemical; details: read-out: I% (antagonistic or inhibitory), PDEA3
[3] = tested on: Nicotinic AChR Receptor Muscle-Type; experiment: Selectivity panel: nAChR muscle-type; type: binding; details: 10 µM
[4] = biological target: T1, human NNMT (hNNMT) (Homo sapiens, UniProt P40261); experiment: Fluorescence based NNMT enzymatic assay (human); details: fluorescence based biochemical assay
T1 construct: The full length NNMT proteins (1–264 amino acids) of human & mouse; 6 × His tag (N); TEV cleavage site (ENLYFQG) (N); made in house; host or cells: E. coli Rosetta2(DE3)pLysS
Experimental: (§1) NNMT activity was measured with the fluorescence enzymatic assay[22],[23]. MNA formed in the NNMT reaction reacts with acetophenone in the presence of KOH and formic acid and forms a fluorescent product 2, 7- naphthyridine. JBSNF-000088 was screened using human, mouse and monkey NNMT enzymes. Different concentrations of inhibitors were preincubated along with the enzyme for 30 minutes at room temperature. Reaction was initiated by addition of SAM and nicotinamide mixture (7 µM, 20 µM, 8 µM SAM and 6 µM, 20 µM, 9 µM nicotinamide for human, mouse and monkey NNMT assays respectively) for 60 minutes at 37 °C. The final assay reaction mixture contained a buffer of 100 mM Tris Hcl pH 7.5, 0.04% BSA, 2 mM dithiothreitol and 1% DMSO. At the end of the incubation, the reaction was stopped by the addition of ethanol: acetophenone mix (75% ethanol: 25% acetophenone) and 5 M potassium hydroxide prepared with 50% ethanol. The reaction was incubated for 15 minutes following which 100 µL of 60% formic acid was added. […] The fluorescent product 2, 7- naphthyridine was measured using a Tecan reader with excitation at 375 nm and emission at 430 nm. The IC50 values were determined by fitting the inhibition curves (percent inhibition versus inhibitor concentration) using a four parametric sigmoidal dose response using GraphPad Prism software.

[5] = biological target: T2, monkey NNMT (mkNNMT) (Macaca mulatta, UniProt F7ERX8); experiment: Fluorescence based NNMT enzymatic assay (monkey); details: fluorescence based biochemical assay
T2 construct: made in house
Experimental: as §1

[6] = biological target: Niacin receptor (NAR1) (Homo sapiens, UniProt Q8TDS4); experiment: Selectivity panel: NAR1; type: cell-based; details: 10 µM
[7] = biological target: Opioid Receptor mu (OPRM1) (Homo sapiens, UniProt P35372); experiment: Selectivity panel: OPRM1; type: cell-based
Experimental: (§2) Supplement 41598_2018_22081_MOESM1_ESM.docx, table 2: Supplementary table 2: Selectivity profile of JBSNF-000088 (at 10 µM) vs a panel of 34 receptors, channels and enzymes. | column: E% (agonistic); I% (antagonistic or inhibitory)

[8] = tested on: Cl- Channel; experiment: Selectivity panel: Cl- channel; type: binding; details: 10 µM
[9] = biological target: adrenergic, alpha-1A-, receptor (ADRA1A) (Homo sapiens, UniProt P35348); experiment: Selectivity panel: ADRA1A; type: cell-based
Experimental: as §2

Chain of Opioid Receptor mu (OPRM1) (P35372 whole entry): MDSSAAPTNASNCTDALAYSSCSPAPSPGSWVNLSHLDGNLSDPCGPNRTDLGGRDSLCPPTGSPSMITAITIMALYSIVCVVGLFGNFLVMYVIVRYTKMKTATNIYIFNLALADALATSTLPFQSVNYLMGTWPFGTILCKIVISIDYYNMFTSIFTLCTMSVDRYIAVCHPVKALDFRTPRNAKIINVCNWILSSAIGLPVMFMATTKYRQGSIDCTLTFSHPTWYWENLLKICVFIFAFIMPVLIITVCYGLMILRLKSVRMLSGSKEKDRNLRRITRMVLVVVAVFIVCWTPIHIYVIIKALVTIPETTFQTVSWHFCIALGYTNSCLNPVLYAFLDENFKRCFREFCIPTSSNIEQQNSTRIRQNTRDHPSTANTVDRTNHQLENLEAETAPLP
Chain of adrenergic, alpha-1A-, receptor (ADRA1A) (P35348 whole entry): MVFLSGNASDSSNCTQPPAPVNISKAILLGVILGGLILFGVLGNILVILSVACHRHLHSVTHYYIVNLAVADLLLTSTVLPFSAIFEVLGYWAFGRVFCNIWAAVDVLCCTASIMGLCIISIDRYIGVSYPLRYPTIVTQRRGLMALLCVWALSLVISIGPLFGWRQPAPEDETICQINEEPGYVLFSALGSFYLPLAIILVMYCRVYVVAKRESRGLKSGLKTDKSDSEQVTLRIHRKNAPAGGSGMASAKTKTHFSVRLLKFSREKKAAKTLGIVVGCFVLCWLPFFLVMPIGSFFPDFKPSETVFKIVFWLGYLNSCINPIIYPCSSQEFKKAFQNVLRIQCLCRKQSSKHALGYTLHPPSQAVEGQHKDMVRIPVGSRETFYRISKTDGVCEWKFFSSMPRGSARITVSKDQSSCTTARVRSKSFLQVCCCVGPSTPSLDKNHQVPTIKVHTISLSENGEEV
Chain of Niacin receptor (NAR1) (Q8TDS4 whole entry): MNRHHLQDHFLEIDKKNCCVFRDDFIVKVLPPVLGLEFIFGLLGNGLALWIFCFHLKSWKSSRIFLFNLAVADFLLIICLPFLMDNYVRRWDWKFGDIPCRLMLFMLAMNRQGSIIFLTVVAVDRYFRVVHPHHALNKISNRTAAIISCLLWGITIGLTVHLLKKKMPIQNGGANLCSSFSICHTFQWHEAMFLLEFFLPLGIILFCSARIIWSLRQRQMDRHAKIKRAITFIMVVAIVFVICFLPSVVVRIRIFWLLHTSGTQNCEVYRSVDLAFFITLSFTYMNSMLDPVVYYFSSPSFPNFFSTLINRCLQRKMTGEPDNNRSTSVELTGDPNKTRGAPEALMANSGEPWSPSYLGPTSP
T1 sequence (P40261 whole entry, the tested form may be a part): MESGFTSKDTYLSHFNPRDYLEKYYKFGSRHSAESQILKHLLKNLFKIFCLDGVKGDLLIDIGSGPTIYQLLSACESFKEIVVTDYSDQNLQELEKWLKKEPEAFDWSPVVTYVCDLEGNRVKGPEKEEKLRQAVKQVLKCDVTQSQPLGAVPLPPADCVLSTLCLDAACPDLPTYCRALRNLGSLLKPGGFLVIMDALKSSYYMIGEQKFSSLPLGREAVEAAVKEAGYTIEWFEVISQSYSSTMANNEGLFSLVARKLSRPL
Chain of cGMP-inhibited 3,5-cyclic phosphodiesterase A (PDEA3) (Q14432 whole entry): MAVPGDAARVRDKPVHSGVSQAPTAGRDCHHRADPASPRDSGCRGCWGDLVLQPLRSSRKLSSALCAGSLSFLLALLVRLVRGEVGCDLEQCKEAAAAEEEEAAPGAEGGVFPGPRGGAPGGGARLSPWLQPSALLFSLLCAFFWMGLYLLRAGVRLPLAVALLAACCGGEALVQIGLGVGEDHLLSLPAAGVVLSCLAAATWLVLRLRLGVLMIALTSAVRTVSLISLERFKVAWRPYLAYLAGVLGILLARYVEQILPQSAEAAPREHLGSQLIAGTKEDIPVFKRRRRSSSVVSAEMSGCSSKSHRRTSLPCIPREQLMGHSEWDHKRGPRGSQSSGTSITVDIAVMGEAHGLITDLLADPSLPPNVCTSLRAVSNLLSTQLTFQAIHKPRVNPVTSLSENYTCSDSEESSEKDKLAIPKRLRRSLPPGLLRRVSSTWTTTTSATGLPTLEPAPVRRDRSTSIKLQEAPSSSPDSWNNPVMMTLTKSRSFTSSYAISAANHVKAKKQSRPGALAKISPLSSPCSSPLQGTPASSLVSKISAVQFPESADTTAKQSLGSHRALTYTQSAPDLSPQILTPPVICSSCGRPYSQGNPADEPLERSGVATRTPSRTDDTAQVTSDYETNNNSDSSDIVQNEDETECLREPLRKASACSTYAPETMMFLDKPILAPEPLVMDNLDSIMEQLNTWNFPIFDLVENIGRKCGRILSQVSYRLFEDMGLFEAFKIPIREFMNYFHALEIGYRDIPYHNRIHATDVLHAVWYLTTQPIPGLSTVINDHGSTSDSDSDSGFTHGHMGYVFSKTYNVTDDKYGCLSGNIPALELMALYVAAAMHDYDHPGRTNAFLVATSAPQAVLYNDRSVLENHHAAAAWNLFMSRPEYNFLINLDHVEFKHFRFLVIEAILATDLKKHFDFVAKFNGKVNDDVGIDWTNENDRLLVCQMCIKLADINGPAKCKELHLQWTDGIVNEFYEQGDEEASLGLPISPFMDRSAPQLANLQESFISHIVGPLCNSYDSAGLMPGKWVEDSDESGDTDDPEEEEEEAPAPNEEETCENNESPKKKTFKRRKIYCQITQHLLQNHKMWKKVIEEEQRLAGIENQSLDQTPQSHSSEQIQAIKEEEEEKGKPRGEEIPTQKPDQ
T2 sequence (F7ERX8 1-264): as the sequence (P40261 whole entry, the tested form may be a part) above, with S13R, K43E, V82I, P156L, V160L, C177R, A257G, P263S counted along it

COc1ccc(C(N)=O)cn1 [JBSNF-000088, 6-methoxynicotinamide]
concentration at 1 h ([1]; plasma): 275 ± 39 µM | concentration at 1 h ([1]; subcutaneous fat): 6.94 ± 1.52 µM | concentration at 1 h ([1]; visceral fat): 7.14 ± 2.18 µM | inhibition at 10 µM [2]: -1% | I% (antagonistic or inhibitory), Nicotinic AChR Receptor Muscle-Type [3]: -2% | IC50 [4]: 1800 nM | IC50 [5]: 2800 nM | E% (agonistic), NAR1 [6]: -3% | E% (agonistic), OPRM1 ([7]; 10 µM): -1% | inhibition at 10 µM ([7]; OPRM1, read-out: I% (antagonistic or inhibitory), OPRM1): -8% | I% (antagonistic or inhibitory), Cl- Channel [8]: 8% | E% (agonistic), ADRA1A ([9]; 10 µM): -2% | inhibition at 10 µM ([9]; read-out: I% (antagonistic or inhibitory), ADRA1A): -3%
